Usually IC50 stands for the point on the concentration scale where inhibition reaches its midpoint.

19 molecules from patent publication US10793563B2, “GCN2 inhibitors and uses thereof” (Merck Patent GmbH, priority 2018, dated 2020) can be followed below.

The target in one assay is GCN2 kinase (Homo sapiens (Human), UniProt Q9P2K8). The assay is described as follows: GCN2 Enzyme Inhibition Assay (Transcreener ADP2 fluorescence polarization). The assay is classed as biochemical. The note with it: 280 μM ATP, 200 μM (RS)7 peptide, 4 nM GCN2, 25° C. A digest of the protocol: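 At 25 °C, GCN2 kinase (typical final concentration 4 nM) and (RS)7 peptide in Tris-HCl pH 7.5 buffer with MgCl2, NaCl and DTT were preincubated with compound for 10 min, then ATP was added for a 1 h reaction. ADP was read by FP with antibody/Alexa633 tracer. Non-linear tight-binding analysis gave IC50 and apparent Ki.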
GCN2 kinase, sequence (Q9P2K8 whole entry): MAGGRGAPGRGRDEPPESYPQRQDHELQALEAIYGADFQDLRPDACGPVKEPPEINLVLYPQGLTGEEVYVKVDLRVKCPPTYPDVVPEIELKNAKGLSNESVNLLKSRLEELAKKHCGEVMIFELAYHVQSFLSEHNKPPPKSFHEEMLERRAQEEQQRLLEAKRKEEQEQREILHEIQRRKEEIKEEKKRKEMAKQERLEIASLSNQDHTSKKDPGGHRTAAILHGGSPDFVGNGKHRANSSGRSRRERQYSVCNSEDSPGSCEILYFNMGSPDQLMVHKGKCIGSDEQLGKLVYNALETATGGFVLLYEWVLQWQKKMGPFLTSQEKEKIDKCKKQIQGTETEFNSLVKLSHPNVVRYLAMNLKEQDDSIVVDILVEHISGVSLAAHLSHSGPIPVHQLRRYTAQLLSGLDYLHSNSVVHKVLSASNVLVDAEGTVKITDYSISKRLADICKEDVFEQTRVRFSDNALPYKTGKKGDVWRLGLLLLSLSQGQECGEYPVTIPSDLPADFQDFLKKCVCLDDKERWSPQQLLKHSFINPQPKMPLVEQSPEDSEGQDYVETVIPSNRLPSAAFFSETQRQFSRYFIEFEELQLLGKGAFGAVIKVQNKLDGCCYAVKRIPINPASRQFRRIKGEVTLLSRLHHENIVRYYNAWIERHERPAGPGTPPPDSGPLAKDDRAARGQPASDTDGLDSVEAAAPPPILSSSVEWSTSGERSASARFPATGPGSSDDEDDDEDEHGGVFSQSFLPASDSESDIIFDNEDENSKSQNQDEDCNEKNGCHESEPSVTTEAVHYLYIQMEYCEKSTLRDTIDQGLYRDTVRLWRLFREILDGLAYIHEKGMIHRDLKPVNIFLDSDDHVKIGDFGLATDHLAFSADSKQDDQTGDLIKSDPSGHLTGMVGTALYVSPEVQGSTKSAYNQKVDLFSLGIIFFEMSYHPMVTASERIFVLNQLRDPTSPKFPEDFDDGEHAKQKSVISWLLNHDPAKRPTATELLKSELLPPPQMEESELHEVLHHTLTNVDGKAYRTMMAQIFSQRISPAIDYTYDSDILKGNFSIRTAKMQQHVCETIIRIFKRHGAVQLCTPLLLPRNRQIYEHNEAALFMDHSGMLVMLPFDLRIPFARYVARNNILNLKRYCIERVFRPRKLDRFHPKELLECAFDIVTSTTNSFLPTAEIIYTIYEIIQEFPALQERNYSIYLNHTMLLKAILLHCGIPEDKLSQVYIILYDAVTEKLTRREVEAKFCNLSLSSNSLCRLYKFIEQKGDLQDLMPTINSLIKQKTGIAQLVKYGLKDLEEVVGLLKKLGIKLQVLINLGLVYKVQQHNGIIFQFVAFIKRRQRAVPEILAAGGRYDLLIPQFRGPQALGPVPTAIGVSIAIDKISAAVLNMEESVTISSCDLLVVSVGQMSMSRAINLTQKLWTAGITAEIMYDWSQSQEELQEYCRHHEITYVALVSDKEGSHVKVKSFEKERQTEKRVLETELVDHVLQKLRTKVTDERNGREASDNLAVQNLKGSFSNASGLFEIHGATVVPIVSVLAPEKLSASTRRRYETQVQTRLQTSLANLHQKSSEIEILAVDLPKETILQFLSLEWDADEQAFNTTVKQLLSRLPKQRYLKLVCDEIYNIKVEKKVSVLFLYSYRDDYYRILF

In assay [1] the target is intracellular GCN2 (phosphorylation of the GCN2 substrate eIF2α) (Homo sapiens (Human), UniProt Q9P2K8). The experiment in a line: GCN2 Cellular Inhibition Assay (AlphaScreen SureFire P-eIF2α Ser51, borrelidin-treated U2OS cells). The assay is classed as cell-based. The settings on record: 10 μM borrelidin, 1 h, phosphorylated eIF2α Ser51, read-out: GCN2 Biomarker (IC50). The method in brief:
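Phospho-eIF2α (Ser51) measured by AlphaScreen SureFire in lysates of U2OS cells stimulated 1 h at 37 °C with 10 μM borrelidin alongside compound, 4-fold dilutions from 40 μM. Inhibition expressed as percent relative to borrelidin-alone controls.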
For orientation: In Alpha technology, singlet oxygen from a donor bead excites a nearby acceptor bead.

intracellular GCN2 (phosphorylation of the GCN2 substrate eIF2α), sequence (Q9P2K8 whole entry): as above

Turning to `Cn1cc(C(=O)N2CCN(c3ccnc(-c4cnc5ccc(C(F)(F)F)cn45)n3)CC2c2cn[nH]c2)cn1` (centres unmarked) [I-418, (2-(1H-pyrazol-4-yl)-4-(2-(6-(trifluoromethyl)imidazo[1,2-a]pyridin-3-yl)pyrimidin-4-yl)piperazin-1-yl)(1-methyl-1H-pyrazol-4-yl)methanone], the half-inhibitory concentration (IC50) on GCN2 kinase is 10 to 100 nM; in assay [1], 500 to 5000 nM.

`Cn1nccc1C(=O)N1CCN(c2ccnc(-c3cnc4ccc(C(F)(F)F)cn34)n2)CC1c1cn[nH]c1` (centres unmarked) [I-419, (2-(1H-pyrazol-4-yl)-4-(2-(6-(trifluoromethyl)imidazo[1,2-a]pyridin-3-yl)pyrimidin-4-yl)piperazin-1-yl)(1-methyl-1H-pyrazol-5-yl)methanone]: the half-inhibitory concentration (IC50) on GCN2 kinase was in the range of 10 to 100 nM; in assay [1], 500 to 5000 nM.

`CC(O)C(=O)N1CCN(c2ccnc(-c3cnc4ccc(C(F)(F)F)cn34)n2)CC1c1cn[nH]c1` (centres unmarked) [I-420, 1-(2-(1H-pyrazol-4-yl)-4-(2-(6-(trifluoromethyl)imidazo[1,2-a]pyridin-3-yl)pyrimidin-4-yl)piperazin-1-yl)-2-hydroxypropan-1-one]: the IC50 against GCN2 kinase fell in the range of 10 to 100 nM; in assay [1] it was 500 to 5000 nM.

For the molecule `O=C(CO)N1CCN(c2ccnc(-c3cnc4ccc(C(F)(F)F)cn34)n2)CC1c1cn[nH]c1` (centres unmarked) [I-421, 1-(2-(1H-pyrazol-4-yl)-4-(2-(6-(trifluoromethyl)imidazo[1,2-a]pyridin-3-yl)pyrimidin-4-yl)piperazin-1-yl)-2-hydroxyethan-1-one], the half-maximal inhibitory concentration (IC50) on GCN2 kinase is 10 to 100 nM; in assay [1] it was > 5000 nM.

With `O=C(CCn1ccnc1)N1CCN(c2ccnc(-c3cnc4ccc(C(F)(F)F)cn34)n2)CC1c1cn[nH]c1` (centres unmarked) [I-422, 1-(2-(1H-pyrazol-4-yl)-4-(2-(6-(trifluoromethyl)imidazo[1,2-a]pyridin-3-yl)pyrimidin-4-yl)piperazin-1-yl)-3-(1H-imidazol-1-yl)propan-1-one], the IC50 on GCN2 kinase is 10 to 100 nM; in assay [1] it was > 5000 nM.

Turning to `NC(=O)[C@@H]1CN(c2ccnc(-c3cnc4cc(F)c(Cl)cn34)n2)CCN1C1CC1` [I-424, (S)-4-(2-(6-chloro-7-fluoroimidazo[1,2-a]pyridin-3-yl)pyrimidin-4-yl)-1-cyclopropylpiperazine-2-carboxamide], the IC50 at GCN2 kinase was in the range of 10 to 100 nM; in assay [1] it was 500 to 5000 nM.

On to `Cc1[nH]ncc1C1CC(F)CN(c2ccnc(-c3cnc4cc(F)c(Cl)cn34)n2)C1` (centres unmarked) [I-426, 6-chloro-7-fluoro-3-(4-(3-fluoro-5-(5-methyl-1H-pyrazol-4-yl)piperidin-1-yl)pyrimidin-2-yl)imidazo[1,2-a]pyridine], for which the figures for the half-inhibitory concentration (IC50) (against GCN2 kinase; in assay [1]) were 10 to 100 nM and 500 to 5000 nM, respectively.

For the molecule `C[C@@H]1CN(c2ccnc(-c3cnc4ccc(C(F)(F)F)cn34)n2)C[C@H](C)N1C(=O)c1ccn(C2CC2)n1` [I-440, (1-cyclopropyl-1H-pyrazol-3-yl)(cis-2,6-dimethyl-4-(2-(6-(trifluoromethyl)imidazo[1,2-a]pyridin-3-yl)pyrimidin-4-yl)piperazin-1-yl)methanone], the results for the IC50 (against GCN2 kinase; in assay [1]) were 100 to 1000 nM and > 5000 nM, respectively.

As for `O=C(c1cnon1)N1CCN(c2ccnc(-c3cnc4ccc(C(F)(F)F)cn34)n2)CC1c1cn[nH]c1` (centres unmarked) [I-441, (2-(1H-pyrazol-4-yl)-4-(2-(6-(trifluoromethyl)imidazo[1,2-a]pyridin-3-yl)pyrimidin-4-yl)piperazin-1-yl)(1,2,5-oxadiazol-3-yl)methanone], the concentration for half-maximal inhibition (IC50) is 10 to 100 nM on GCN2 kinase and > 5000 nM in assay [1].

Regarding `O=C(c1cn[nH]n1)N1CCN(c2ccnc(-c3cnc4ccc(C(F)(F)F)cn34)n2)CC1c1cn[nH]c1` (centres unmarked) [I-442, (2-(1H-pyrazol-4-yl)-4-(2-(6-(trifluoromethyl)imidazo[1,2-a]pyridin-3-yl)pyrimidin-4-yl)piperazin-1-yl)(2H-1,2,3-triazol-4-yl)methanone], the IC50 was 10 to 100 nM at GCN2 kinase and 500 to 5000 nM in assay [1].

As to `O=C(c1cocn1)N1CCN(c2ccnc(-c3cnc4ccc(C(F)(F)F)cn34)n2)CC1c1cn[nH]c1` (centres unmarked) [I-443, (2-(1H-pyrazol-4-yl)-4-(2-(6-(trifluoromethyl)imidazo[1,2-a]pyridin-3-yl)pyrimidin-4-yl)piperazin-1-yl)(oxazol-4-yl)methanone], the half-inhibitory concentration (IC50) against GCN2 kinase fell in the range of 10 to 100 nM; in assay [1] it was 500 to 5000 nM.

As to `O=C(c1cnoc1)N1CCN(c2ccnc(-c3cnc4ccc(C(F)(F)F)cn34)n2)CC1c1cn[nH]c1` (centres unmarked) [I-444, (2-(1H-pyrazol-4-yl)-4-(2-(6-(trifluoromethyl)imidazo[1,2-a]pyridin-3-yl)pyrimidin-4-yl)piperazin-1-yl)(isoxazol-4-yl)methanone], the IC50 against GCN2 kinase lay in the range of 10 to 100 nM; in assay [1], 500 to 5000 nM.

`O=C(c1c[nH]cn1)N1CCN(c2ccnc(-c3cnc4ccc(C(F)(F)F)cn34)n2)CC1c1cn[nH]c1` (centres unmarked) [I-445, (2-(1H-pyrazol-4-yl)-4-(2-(6-(trifluoromethyl)imidazo[1,2-a]pyridin-3-yl)pyrimidin-4-yl)piperazin-1-yl)(1H-imidazol-4-yl)methanone]: the IC50 was in the range of 10 to 100 nM against GCN2 kinase and 500 to 5000 nM in assay [1].

As for `Cn1cnc(C(=O)N2CCN(c3ccnc(-c4cnc5ccc(C(F)(F)F)cn45)n3)CC2c2cn[nH]c2)c1` (centres unmarked) [I-446, (2-(1H-pyrazol-4-yl)-4-(2-(6-(trifluoromethyl)imidazo[1,2-a]pyridin-3-yl)pyrimidin-4-yl)piperazin-1-yl)(1-methyl-1H-imidazol-4-yl)methanone], the IC50 against GCN2 kinase is 10 to 100 nM; in assay [1], 500 to 5000 nM.

Turning to `CS(=O)(=O)N1CC2(CN(c3ccnc(-c4cnc5ccc(C(F)(F)F)cn45)n3)CCO2)C1` [I-447, 2-(methylsulfonyl)-8-(2-(6-(trifluoromethyl)imidazo[1,2-a]pyridin-3-yl)pyrimidin-4-yl)-5-oxa-2,8-diazaspiro[3.5]nonane], the concentration for half-maximal inhibition (IC50) against GCN2 kinase was in the range of 10 to 100 nM; in assay [1], 500 to 5000 nM.

As to `CS(=O)(=O)N1CC2(CCCN(c3ccnc(-c4cnc5ccc(C(F)(F)F)cn45)n3)C2)C1` [I-448, 2-(methylsulfonyl)-6-(2-(6-(trifluoromethyl)imidazo[1,2-a]pyridin-3-yl)pyrimidin-4-yl)-2,6-diazaspiro[3.5]nonane], the IC50 on GCN2 kinase fell in the range of 10 to 100 nM; in assay [1], 500 to 5000 nM.

Regarding `FC(F)(F)CCN1CCN(c2ccnc(-c3cnc4ccc(C(F)(F)F)cn34)n2)CC1c1cn[nH]c1` (centres unmarked) [I-449, 3-(4-(3-(1H-pyrazol-4-yl)-4-(3,3,3-trifluoropropyl)piperazin-1-yl)pyrimidin-2-yl)-6-(trifluoromethyl)imidazo[1,2-a]pyridine], the IC50 was < 10 nM against GCN2 kinase and < 500 nM in assay [1].

Take `Fc1ccc(CN2CCN(c3ccnc(-c4cnc5ccc(C(F)(F)F)cn45)n3)CC2c2cn[nH]c2)cc1F` (centres unmarked) [I-450, 3-(4-(4-(3,4-difluorobenzyl)-3-(1H-pyrazol-4-yl)piperazin-1-yl)pyrimidin-2-yl)-6-(trifluoromethyl)imidazo[1,2-a]pyridine]: the IC50 was 10 to 100 nM on GCN2 kinase and < 500 nM in assay [1].

With `FC(F)(F)c1ccc2ncc(-c3nccc(N4CCN(Cc5cnon5)C(c5cn[nH]c5)C4)n3)n2c1` (centres unmarked) [I-461, 4-{4-[(1,2,5-oxadiazol-3-yl)methyl]-3-(1H-pyrazol-4-yl)piperazin-1-yl}-2-[6-(trifluoromethyl)imidazo[1,2-a]pyridin-3-yl]pyrimidine], the IC50 on GCN2 kinase was < 10 nM; in assay [1] it was < 500 nM.
